Data: PubChem BioAssay (NCI)
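GI50 marks 50% less growth. TGI marks complete inhibition of growth.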

What was measured:
Assay in all cases: NCI-60 cell line screen, 384-well format; in the data active means GI50 below about 0.43 µM; inactive means the rest
A498 renal = tested on: A498 renal
CCRF-CEM leukemia = tested on: CCRF-CEM leukemia
HCC-2998 colon = tested on: HCC-2998 colon
HOP-62 NSCLC = tested on: HOP-62 NSCLC
HS 578T breast = tested on: HS 578T breast
M14 melanoma = tested on: M14 melanoma
OVCAR-3 ovarian = tested on: OVCAR-3 ovarian
PC-3 prostate = tested on: PC-3 prostate
SF-295 CNS = tested on: SF-295 CNS
SF-539 CNS = tested on: SF-539 CNS
SK-MEL-2 melanoma = tested on: SK-MEL-2 melanoma
SK-OV-3 ovarian = tested on: SK-OV-3 ovarian
T-47D breast = tested on: T-47D breast

Cc1cc([C@H](C)Nc2nccc(N3C(=O)OC[C@@H]3[C@H](C)F)n2)ncc1-c1ccnc(C(F)(F)F)c1
> 100 µM: TGI (A498 renal) | TGI (HCC-2998 colon) | TGI (HOP-62 NSCLC) | TGI (HS 578T breast) | TGI (M14 melanoma) | TGI (PC-3 prostate) | TGI (SF-295 CNS) | TGI (SF-539 CNS) | TGI (SK-MEL-2 melanoma) | TGI (SK-OV-3 ovarian) | TGI (T-47D breast)
31.5 µM: TGI (CCRF-CEM leukemia)
72.3 µM: TGI (OVCAR-3 ovarian)
inactive: GI50 (A498 renal) 30.4 µM | GI50 (CCRF-CEM leukemia) 7.56 µM | GI50 (HCC-2998 colon) 24.6 µM | GI50 (HOP-62 NSCLC) 54.5 µM | GI50 (HS 578T breast) 16.1 µM | GI50 (M14 melanoma) 86.2 µM | GI50 (OVCAR-3 ovarian) 22.2 µM | GI50 (PC-3 prostate) 27.7 µM | GI50 (SF-295 CNS) 33.5 µM | GI50 (SF-539 CNS) 96.3 µM | GI50 (SK-MEL-2 melanoma) 82.9 µM | GI50 (SK-OV-3 ovarian) 41.7 µM | GI50 (T-47D breast) 5.13 µM
